Assay results: the supplement of paper PMC10307832

What was measured:
Test in all cases: relative viability (nuclei count vs DMSO), 5 days (fraction); higher = more cells survive
[1] = compound: CCC1=CN=CN=C1N2CCN(CC2)CC3=NC4=C(N3)C=C(C=C4)C(F)(F)F + COc1cccc2cc(-c3nc([C@H]4CC[C@H](C(=O)O)CC4)n4ncnc(N)c34)[nH]c12 [OSI-027] (partner 0.5 µM)
In short: (§1)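 The day after seeding in 1536-well plates, lung cancer cell lines were treated by pin tool with a single drug, or with a fixed anchor-drug dose together with five library-drug doses (not always all listed) in √10 steps. After 5 days, a combined fix-and-stain solution (final 0.05% Triton X-100, 1% formaldehyde, 1 ug/ml Hoechst) was added. Nuclei counted on 4× images gave relative viability as treated counts over vehicle counts, reported as the median of duplicate plates.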

[2] = compound: CCC1=CN=CN=C1N2CCN(CC2)CC3=NC4=C(N3)C=C(C=C4)C(F)(F)F + O=C(CCCCCCC(=O)Nc1ccccc1)NO [Vorinostat] (partner 1 µM)
In short: as §1

[3] = compound: CCn1c(-c2nonc2N)nc2cnc(Oc3cccc(NC(=O)c4ccc(OCCN5CCOCC5)cc4)c3)cc21 + COc1cccc2cc(-c3nc([C@H]4CC[C@H](C(=O)O)CC4)n4ncnc(N)c34)[nH]c12 [OSI-027] (partner 0.5 µM)
In short: as §1

Mirin + Alpelisib = compound: N=C1NC(=O)/C(=C/c2ccc(O)cc2)S1 [Mirin] + Cc1nc(NC(=O)N2CCC[C@H]2C(N)=O)sc1-c1ccnc(C(C)(C)C(F)(F)F)c1 [Alpelisib] (partner 2 µM)
In short: as §1

Row | Cell Line | relative viability ([1]; first compound 0.04 µM) | relative viability ([1]; first compound 0.1265 µM) | relative viability ([1]; first compound 0.4 µM) | relative viability ([1]; first compound 1.265 µM) | relative viability ([1]; first compound 4 µM) | relative viability ([2]; first compound 0.04 µM) | relative viability ([2]; first compound 0.1265 µM) | relative viability ([2]; first compound 0.4 µM) | relative viability ([2]; first compound 1.265 µM) | relative viability ([2]; first compound 4 µM) | relative viability ([3]; first compound 0.04 µM) | relative viability ([3]; first compound 0.1265 µM) | relative viability ([3]; first compound 0.4 µM) | relative viability ([3]; first compound 1.265 µM) | relative viability ([3]; first compound 4 µM) | relative viability (Mirin + Alpelisib; first compound 0.25 µM) | relative viability (Mirin + Alpelisib; first compound 0.7906 µM) | relative viability (Mirin + Alpelisib; first compound 2.5 µM) | relative viability (Mirin + Alpelisib; first compound 7.906 µM) | relative viability (Mirin + Alpelisib; first compound 25 µM)
1 | NCI-H1437 | 0.857 | 0.847 | 0.777 | 0.667 | 0.749 | 0.915 | 0.748 | 0.745 | 0.64 | 0.5 | 0.946 | 0.742 | 0.553 | 0.74 | 0.662 | 0.979 | 0.884 | 0.832 | 0.705 | 0.474
2 | SK-MES-1 | 0.648 | 0.592 | 0.597 | 0.57 | 0.622 | 1.11 | 1.04 | 1.01 | 1.03 | 1.08 | 0.651 | 0.601 | 0.403 | 0.386 | 0.359 | 0.976 | 0.908 | 0.994 | 0.969 | 0.798
3 | NCI-H3122 | 1.02 | 0.974 | 0.937 | 0.938 | 1.17 | 1.04 | 0.863 | 1.01 | 1.03 | 0.875 | 1.4 | 0.961 | 0.729 | 0.326 | 0.737 | 0.715 | 0.823 | 0.729 | 0.923 | 0.821
4 | NCI-H2023 | 0.447 | 0.403 | 0.342 | 0.321 | 0.453 | 0.561 | 0.575 | 0.649 | 0.556 | 0.776 | 0.497 | 0.47 | 0.261 | 0.299 | 0.269 | 0.588 | 0.594 | 0.616 | 0.616 | 0.555
5 | PC-14 | 0.871 | 0.814 | 0.809 | 0.766 | 0.82 | 0.764 | 0.756 | 0.688 | 0.691 | 0.657 | 0.796 | 0.693 | 0.586 | 0.715 | 0.685 | 0.83 | 0.915 | 1.01 | 0.95 | 1.05
6 | NCI-H727 | 0.531 | 0.618 | 0.581 | 0.423 | 0.533 | 1.22 | 1.08 | 1.09 | 1.03 | 1.35 | 1.01 | 0.924 | 0.441 | 0.612 | 0.818 | 0.699 | 0.7 | 0.692 | 0.761 | 0.54
7 | NCI-H1734 | 0.601 | 0.557 | 0.58 | 0.513 | 0.714 | 0.734 | 0.803 | 0.783 | 0.7 | 0.814 | 0.647 | 0.591 | 0.303 | 0.335 | 0.319 | 0.67 | 0.651 | 0.684 | 0.656 | 0.584
8 | NCI-H647 | 0.671 | 0.855 | 0.557 | 0.413 | 0.462 | 0.453 | 0.591 | 0.414 | 0.364 | 0.543 | 0.591 | 0.393 | 0.323 | 0.34 | 0.278 | 1.24 | 1.36 | 1.15 | 1.22 | 0.657
9 | NCI-H1944 | 0.524 | 0.382 | 0.385 | 0.338 | 0.39 | 0.664 | 0.441 | 0.663 | 0.384 | 0.524 | 0.413 | 0.397 | 0.236 | 0.214 | 0.236 | 0.834 |  | 0.813 | 0.718 | 0.52
10 | LK-2 | 0.17 | 0.22 | 0.182 | 0.165 | 0.23 | 0.245 | 0.235 | 0.356 | 0.223 | 0.244 | 0.201 | 0.225 | 0.18 | 0.196 | 0.206 | 0.899 |  | 1.1 | 0.743 | 0.397
11 | HCC-15 | 0.622 | 0.651 | 0.621 | 0.563 | 0.599 | 0.864 | 0.831 | 0.789 | 0.76 | 0.82 | 0.806 | 0.617 | 0.324 |  | 0.536 | 0.851 | 0.859 | 0.928 | 0.798 | 0.593
12 | NCI-H838 | 0.443 | 0.438 | 0.403 | 0.313 | 0.354 | 0.785 | 0.695 | 0.821 | 0.66 | 0.662 | 0.338 | 0.294 | 0.228 | 0.242 | 0.194 | 0.966 | 1 | 0.961 | 1.03 | 0.965
13 | HOP-62 | 0.81 | 0.794 | 0.756 | 0.757 | 0.85 | 0.604 | 0.56 | 0.462 | 0.429 | 0.606 | 0.998 | 0.734 | 0.56 | 0.422 | 0.469 | 0.969 | 1.02 | 1.13 |  | 0.939
